{"source": "patent US11447471B2", "about": "“α,β-unsaturated amide compound” (KYOWA KIRIN CO., LTD., priority 2017, dated 2022)", "data": [{"tested_on": "OVTOKO cells", "experiment": "Cell growth inhibitory effect on human ovarian cancer cell line (cell counting kit 8, 6 days)", "assay_type": "cell-based", "details": "144 h, 6 days incubation", "from_the_text": "NCI-H226 cells, a human mesothelioma cell line (ATCC, CRL-5826), NCI-H322 cells, a human lung cancer cell line (the European Collection of Authenticated Cell Cultures, 95111734), OUTOKO cells, a human ovarian cancer cell line (JCRB cell bank, KRB1048) and […] were each subcultured by keeping the cell density under 80% in a RPMI1640 culture medium with 10% fetal bovine serum (FBS). NCI-H226 cells, NCI-H322 cells and SSP-25 cells were each suspended in the RPMI1640 culture medium mentioned above, and plated to a 96-well flat-bottom plate at 500 cells/well in each well, and incubated at 37° C. in an incubator with 5% CO2 for one day. After the incubation, the evaluation of cell growth inhibitory activity was started. OVTOKO cells were suspended in the RPMI1640 culture medium mentioned above, and plated to a 96-well flat-bottom plate at 250 cells/well in each well, and incubated it at 37° C. in an incubator with 5% CO2 for one day. After the incubation, the evaluation of the cell growth inhibitory activity was started. The next day, a test compound was serially diluted to 5 times of its final concentration in the RPM11640 culture medium mentioned above, and the diluted solution was added to each well. In this case, the final concentration of DMSO in each well was adjusted to 0.1%. After the test compound was added, cells were incubated at 37° C. in an incubator with 5% CO2 for 6 days. At the addition of the test compound and 6 days after the addition, the cell counting measurement was performed using a cell counting kit 8 (made by DOJINDO) according to a protocol equivalent to DOJINDO's recommendation. A reagent contained in the kit was added to each plate and color reaction was performed for 2 or 3 hours at 37° C. in an incubator with 5% CO2. After the reaction, an absorbance at wavelength of 450 nm was measured using a microplate reader. A growth inhibition rate was calculated according to the following formula, from which the concentration of a test compound at which cell growth was inhibited by 50% (GI50 value) was determined.", "units": {"GI50": "nM"}, "values": [{"smiles": "C=CC(=O)Nc1ccc(OCC2CCC(F)(F)CC2)c2ncccc12", "note": "[Compound 126, N-[8-{(4,4-Difluorocyclohexyl)methoxy}quinolin-5-yl]acrylamide]", "GI50": "≤ 3000"}, {"smiles": "C=CC(=O)NCc1ccc(Oc2ccc(C(F)(F)F)cc2)c2nccc(C)c12", "note": "[Compound 201, N-([4-Methyl-8-{4-(trifluoromethyl)phenoxy}quinolin-5-yl]methyl)acrylamide]", "GI50": "≤ 3000"}, {"smiles": "C=CC(=O)Nc1cnc(Oc2ccc(Cl)cc2)c2ncccc12", "note": "[Compound 226, N-{8-(4-chlorophenoxy)-1,7-naphthyridin-5-yl}acrylamide]", "GI50": "≤ 3000"}, {"smiles": "[H]/C=C/C(=O)NCc1cc(Oc2ccc(C(F)(F)F)nc2)nc2ccccc12", "note": "[Compound 149, N-{(2-[{6-(Trifluoromethyl)pyridin-3-yl}oxy]quinolin-4-yl)methyl}acrylamide]", "GI50": "≤ 3000"}, {"smiles": "C=CC(=O)NCc1ccc(Oc2ccc(C(F)(F)F)cc2)c2ncc(C)cc12", "note": "[Compound 199, N-([3-Methyl-8-{4-(trifluoromethyl)phenoxy}quinolin-5-yl]methyl)acrylamide]", "GI50": "≤ 3000"}, {"smiles": "C=CC(=O)NCc1cnc(Oc2ccc(C(F)(F)F)cc2)c2ccccc12", "note": "[Compound 222, N-([1-{4-(Trifluoromethyl)phenoxy}isoquinolin-4-yl]methyl)acrylamide]", "GI50": "≤ 3000"}, {"smiles": "C=CC(=O)Nc1cncc(Oc2ccc(C(F)(F)F)cn2)c1", "note": "[Compound 109, N-(5-[{5-(Trifluoromethyl)pyridin-2-yl}oxy]pyridin-3-yl)acrylamide]", "GI50": "≤ 3000"}, {"smiles": "C=CC(=O)NCc1ncc(Oc2ccc(C(F)(F)F)cc2)c2ccccc12", "note": "[Compound 224, N-([4-{4-(Trifluorophenyl)phenoxy}isoquinolin-1-yl]methyl)acrylamide]", "GI50": "≤ 3000"}, {"smiles": "C=CC(=O)NC1COc2c(cc(C(F)(F)F)cc2Oc2ccc(C(F)(F)F)nc2)C1", "note": "(centres unmarked) [Compound 162, N-{6-(Trifluoromethyl)-8-[{6-(trifluoromethyl)pyridin-3-yl}oxy]chroman-3-yl}acrylamide]", "GI50": "≤ 3000"}, {"smiles": "C=CC(=O)NCc1ccc(Nc2ccc(C(F)(F)F)cc2)c2ncccc12", "note": "[Compound 203, N-{(8-[{4-(Trifluoromethyl)phenyl}amino]quinolin-5-yl)methyl}acrylamide]", "GI50": "≤ 3000"}, {"smiles": "C=CC(=O)NCc1ccc(Oc2ccc(Cl)cc2)c2c1CCCO2", "note": "[Compound 176, N-[{8-(4-Chlorophenoxy)chroman-5-yl}methyl]acrylamide]", "GI50": "≤ 3000"}, {"smiles": "C=CC(=O)Nc1cncc(Oc2ccc(C(F)(F)F)c(F)c2)c1", "note": "[Compound 106, N-[5-{3-Fluoro-4-(trifluoromethyl)phenoxy}pyridin-3-yl]acrylamide]", "GI50": "≤ 3000"}, {"smiles": "C=CC(=O)NCc1ccc(Oc2ccc(C(F)(F)F)cc2)c2cccnc12", "note": "[Compound 216, N-([5-{4-(Trifluoromethyl)phenoxy}quinolin-8-yl]methyl)acrylamide]", "GI50": "≤ 3000"}, {"smiles": "C=CC(=O)NCc1cnc(Oc2ccc(Cl)cc2)c2ncccc12", "note": "[Compound 227, N-[{8-(4-Chlorophenoxy)-1,7-naphthyridin-5-yl}methyl]acrylamide]", "GI50": "≤ 3000"}, {"smiles": "C=CC(=O)Nc1cncc(Oc2cccc(C(F)(F)F)c2)c1", "note": "[Compound 95, N-[5-{3-(Trifluoromethyl)phenoxy}pyridin-3-yl)acrylamide]", "GI50": "≤ 3000"}, {"smiles": "C=CC(=O)NCc1ccc(Oc2ccc(C(F)(F)F)cc2)c2nc(C)ccc12", "note": "[Compound 212, N-([2-Methyl-8-{4-(trifluoromethyl)phenoxy}quinolin-5-yl]methyl)acrylamide]", "GI50": "≤ 3000"}, {"smiles": "C=CC(=O)NCc1ccc(Oc2ccc(C(F)(F)F)nc2)c2ncc(C)cc12", "note": "[Compound 200, N-{(3-Methyl-8-[{6-(trifluoromethyl)pyridin-3-yl}oxy]quinolin-5-yl)methyl}acrylamide]", "GI50": "≤ 3000"}, {"smiles": "C=CC(=O)NC1CCOc2c1ccc(Oc1ccc(F)c(F)c1)c2OC", "note": "(centres unmarked) [Compound 164, N-{7-(3,4-Difluorophenoxy)-8-methoxychroman-4-yl}acrylamide]", "GI50": "≤ 3000"}, {"smiles": "C=CC(=O)Nc1ccc(Oc2ccc(Cl)cc2)c2nc(C)ccc12", "note": "[Compound 117, N-{8-(4-Chlorophenoxy)-2-methylquinolin-5-yl}acrylamide]", "GI50": "≤ 3000"}, {"smiles": "C=CC(=O)NCc1ccc(C(O)c2ccc(C(F)(F)F)cc2)c2ncccc12", "note": "(centres unmarked) [Compound 206, N-{(8-[Hydroxy{4-(trifluoromethyl)phenyl}methyl]quinolin-5-yl)methyl}acrylamide]", "GI50": "≤ 3000"}, {"smiles": "C=CC(=O)NC1COc2cccc(Oc3ccc(C(F)(F)F)cc3)c2C1", "note": "(centres unmarked) [Compound 35, N-[5-{4-(Trifluoromethyl)phenoxy}chroman-3-yl]acrylamide]", "GI50": "≤ 3000"}, {"smiles": "C=CC(=O)NCc1ccc(C(=O)c2ccc(C(F)(F)F)cc2)c2ncccc12", "note": "[Compound 208, N-([8-{4-(Trifluoromethyl)benzoyl}quinolin-5-yl]methyl)acrylamide]", "GI50": "≤ 3000"}, {"smiles": "[H]/C=C/C(=O)NCc1cc(Oc2ccnc(Cl)c2)nc2ccccc12", "note": "[Compound 150, N-([2-{(2-Chloropyridin-4-yl)oxy}quinolin-4-yl]methyl)acrylamide]", "GI50": "≤ 3000"}, {"smiles": "C=CC(=O)Nc1ccc(Oc2cccc(Cl)c2)c2ncccc12", "note": "[Compound 114, N-{8-(3-Chlorophenoxy)quinolin-5-yl}acrylamide]", "GI50": "≤ 3000"}, {"smiles": "C=CC(=O)Nc1cncc(Oc2ccc(OC(F)(F)F)cc2)c1", "note": "[Compound 100, N-[5-{4-(Trifluoromethoxy)phenoxy}pyridin-3-yl]acrylamide]", "GI50": "≤ 3000"}, {"smiles": "[H]/C=C/C(=O)NC1CCOc2c1ccc(Oc1ccc(Cl)cc1)c2OC", "note": "(centres unmarked) [Compound 32, N-{7-(4-Chlorophenoxy)-8-methoxychroman-4-yl}acrylamide]", "GI50": "≤ 3000"}, {"smiles": "C=CC(=O)NCc1ccc(Cc2ccc(C(F)(F)F)cc2)c2ncccc12", "note": "[Compound 211, N-([8-{4-(Trifluoromethyl)benzyl}quinolin-5-yl]methyl)acrylamide]", "GI50": "≤ 3000"}, {"smiles": "C=CC(=O)NC1COc2cc(Oc3ccc(Cl)cc3)ccc2C1", "note": "(centres unmarked) [Compound 37, N-{7-(4-Chlorophenoxy)chroman-3-yl}acrylamide]", "GI50": "≤ 3000"}, {"smiles": "C=CC(=O)N[C@@H]1c2ccc(Oc3ccc(C(F)(F)F)cc3)cc2OC[C@@H]1F", "note": "(relative stereo) [Compound 21, cis-N-[3-Fluoro-7-{4-(trifluoromethyl)phenoxy}chroman-4-yl]acrylamide]", "GI50": "≤ 3000"}, {"smiles": "C=CC(=O)Nc1cncc(Oc2ccc(Cl)c(Cl)c2)c1", "note": "[Compound 105, N-{5-(3,4-Dichlorophenoxy)pyridin-3-yl}acrylamide]", "GI50": "≤ 3000"}, {"smiles": "C=CC(=O)Nc1cncc(Oc2ccnc(C(F)(F)F)c2)c1", "note": "[Compound 108, N-(5-[{2-(Trifluoromethy)pyridin-4-yl}oxy]pyridin-3-yl)acrylamide]", "GI50": "≤ 3000"}, {"smiles": "C=CC(=O)NCc1ccc(Oc2ccc(C(F)(F)F)cc2)c2cnccc12", "note": "[Compound 223, N-([8-{4-(Trifluoromethy)phenoxy}isoquinolin-5-yl]methyl)acrylamide]", "GI50": "≤ 3000"}, {"smiles": "[H]/C=C/C(=O)NCc1ccc(Oc2ccc(Cl)cc2)c2ncccc12", "note": "[Compound 134, N-[{8-(4-Chlorophenoxy)quinolin-5-yl}methyl]acrylamide]", "GI50": "≤ 3000"}, {"smiles": "[H]/C=C/C(=O)NCc1ccc(Oc2cccc(C(F)(F)F)c2)c2ncccc12", "note": "[Compound 137, N-([8-{3-(Trifluoromethyl)phenoxy}quinolin-5-yl]methyl)acrylamide]", "GI50": "≤ 3000"}, {"smiles": "C=CC(=O)N[C@H]1CC[C@@H](Oc2ccc(C(F)(F)F)cc2)c2nc(Cl)ccc21", "note": "(relative stereo) [Compound 241, cis-N-[2-Chloro-8-{4-(trifluoromethyl)phenoxy}-5,6,7,8-tetrahydroquinolin-5-yl]acrylamide]", "GI50": "≤ 3000"}, {"smiles": "C=CC(=O)NC1COc2c(Oc3ccc(Cl)cc3)ccc(C)c2C1", "note": "(centres unmarked) [Compound 41, N-{8-(4-Chlorophenoxy)-5-methylchroman-3-yl}acrylamide]", "GI50": "≤ 3000"}, {"smiles": "C=CC(=O)NCc1ccc(Sc2ccc(C(F)(F)F)cc2)c2ncccc12", "note": "[Compound 202, N-{(8-[{4-(Trifluoromethyl)phenyl}thio]quinolin-5-yl)methyl}acrylamide]", "GI50": "≤ 3000"}, {"smiles": "C=CC(=O)N[C@@H]1CC[C@H](Oc2ccc(C(F)(F)F)cc2)c2ncc(Cl)cc21", "note": "(relative stereo) [Compound 190, N-((5R*,8S*)-3-Chloro-8-(4-(trifluoromethyl)phenoxy)-5,6,7,8-tetrahydroquinolin-5-yl)acrylamide]", "GI50": "≤ 3000"}, {"smiles": "C=CC(=O)NCc1ccc(Oc2ccc(C(F)(F)F)nc2)c2cccnc12", "note": "[Compound 219, N-{(5-[{6-(Trifluoromethyl)pyridin-3-yl}oxy]quinolin-8-yl)methyl}acrylamide]", "GI50": "≤ 3000"}, {"smiles": "C=CC(=O)Nc1ccc(Oc2ccccc2)c2ncccc12", "note": "[Compound 111, N-(8-Phenoxyquinolin-5-yl)acrylamide]", "GI50": "≤ 3000"}, {"smiles": "C=CC(=O)NC1COc2c(cccc2Oc2ccc(Cl)cc2)C1", "note": "(centres unmarked) [Compound 59, N-{8-(4-chlorophenoxy)chroman-3-yl}acrylamide]", "GI50": "≤ 3000"}]}]}
